Patent US7179926B2, “Aryloxyalkylamine NK-1/SSRI inhibitors” (Bristol-Myers Squibb Company, priority 2004, dated 2007)

Key:
[1] = biological target: T1, neurokinin-1 (NK-1) receptor (Homo sapiens, UniProt P25103); assay: NK-1 Binding assay ([125I] Substance P competition, U373 cell membranes); conditions: Bolton Hunter labeled [125I] Substance P, 30 min at 20° C.
T1 construct: endogenously expresses the neurokinin-1 (NK-1) receptor; endogenous in cells; host or cells: U373 human glioblastoma-astrocytoma cells (membranes)
T1 sequence (P25103 whole entry): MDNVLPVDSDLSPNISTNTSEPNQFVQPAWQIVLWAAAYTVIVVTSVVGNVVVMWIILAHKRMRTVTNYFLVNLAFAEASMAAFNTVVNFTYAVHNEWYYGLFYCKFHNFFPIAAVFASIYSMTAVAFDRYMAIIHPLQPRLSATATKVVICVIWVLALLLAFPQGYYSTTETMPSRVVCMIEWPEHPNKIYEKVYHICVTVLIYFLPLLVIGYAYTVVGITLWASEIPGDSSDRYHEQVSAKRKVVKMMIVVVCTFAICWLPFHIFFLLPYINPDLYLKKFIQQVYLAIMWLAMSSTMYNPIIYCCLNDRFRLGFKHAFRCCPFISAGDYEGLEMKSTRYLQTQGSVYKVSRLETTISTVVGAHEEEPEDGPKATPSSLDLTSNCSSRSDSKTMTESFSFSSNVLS
Protocol: NK-1 Binding assay. U373 cells, a human glioblastoma-astrocytoma cell line that endogenously expresses the neurokinin-1 (NK-1) receptor, were grown in a monolayer culture at 37° C. in 5% CO2 and fed with Minimum Essential Medium (MEM) supplemented with 10% fetal bovine serum. Membranes were prepared as follows: Cells were washed twice with ice-cold phosphate-buffered saline (pH 7.4) and then incubated for 5–10 minutes with ice-cold 10 mM Tris buffer (pH 7.4) containing 5 mM EDTA. Cells were removed from plates, homogenized, and centrifuged at 32,000×g for 20 minutes. The resulting supernatant was discarded, and the pellet resuspended by homogenization in 50 mM Tris buffer (pH 7.4) containing 1 mM EDTA and centrifuged at 32,000×g for 20 minutes. The resulting supernatant was discarded, and the pellet resuspended by homogenization in NK-1 binding assay buffer (50 mM Tris-HCL (pH 7.4), 3 mM MnCl2, 200 μg/ml BSA, 5 μg/ml chymostatin, 40 μg/ml bacitracin and 4 μg/ml leupeptin).
On the day of an experiment the membrane preparation was thawed, homogenized and diluted with NK-1 binding assay buffer to the appropriate concentration. Competition binding assays were performed in 96 well plate format by incubating membranes (5–10 μg/well) with Bolton Hunter labeled [^125I] Substance P, at a concentration of […], and concentrations of drugs ranging from 10000 to 0.01 nM. Samples were incubated for 30 min at 20° C. then filtered through GF/B glass fiber filters (pretreated with 1% polyethyleneimine and 0.3% Triton X-100) using a Brandel cell harvester. The filters were then washed with 10 ml ice cold 50 mM Tris-HCL (pH 7.4) containing 3 mM MgCl2. Non-specific was defined in the presence of 2 μM L-733,060 (a non-peptide NK-1 antagonist). The amount of radioligand bound in the presence and absence of competitor was analyzed by plotting (−)log drug concentration versus the amount of radioligand specifically bound. The midpoint of the displacement curve (IC50, nM), signifies the potency. Ki values can be calculated using the method of Cheng and Prusoff (Cheng and Prusoff, Biochemical Pharmacology, Vol 22, pp. 3099–3108, Pergamon Press (1973)).

[2] = biological target: T2, human serotonin transporters (Homo sapiens, UniProt P31645); assay: Serotonin transporter binding assay ([3H]-citalopram competition, HEK-hSERT cell membranes); conditions: 1 nM [3H]-citalopram, 1 hr at 25° C., read-out: SERT IC50
T2 construct: expressed in transfected cells
T2 sequence (P31645 whole entry): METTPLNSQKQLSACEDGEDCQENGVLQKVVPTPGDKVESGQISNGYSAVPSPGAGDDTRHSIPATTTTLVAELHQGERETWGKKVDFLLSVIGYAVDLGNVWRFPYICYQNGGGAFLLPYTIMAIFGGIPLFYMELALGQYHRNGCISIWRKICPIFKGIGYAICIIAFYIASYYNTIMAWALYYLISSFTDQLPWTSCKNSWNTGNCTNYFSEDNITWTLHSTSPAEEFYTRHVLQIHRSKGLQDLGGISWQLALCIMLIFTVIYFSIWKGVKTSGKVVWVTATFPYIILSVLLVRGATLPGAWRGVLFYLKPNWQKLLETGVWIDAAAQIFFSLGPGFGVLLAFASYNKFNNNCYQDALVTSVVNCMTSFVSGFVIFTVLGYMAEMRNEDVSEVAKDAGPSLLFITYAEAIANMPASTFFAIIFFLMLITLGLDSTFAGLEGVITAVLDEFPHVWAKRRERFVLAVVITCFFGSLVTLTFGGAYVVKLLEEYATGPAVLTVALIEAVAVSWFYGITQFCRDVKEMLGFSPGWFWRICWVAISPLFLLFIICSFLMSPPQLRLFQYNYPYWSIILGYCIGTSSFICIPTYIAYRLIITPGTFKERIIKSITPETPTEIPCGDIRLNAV
Protocol: Serotonin transporter binding assay. HEK-293 cells that stably express human serotonin transporters (HEK-hSERT cells) were grown at 37° C. in 5% CO2 as a monolayer in medium consisting of EMEM supplemented with 10% fetal bovine serum and G418 sulfate (500 μg/ml). To prepare membranes for radioligand binding experiments, cells were rinsed twice with phosphate-buffered saline (138 mM NaCl, 4.1 mM KCl, 5.1 mM Na2PO4, 1.5 mM KH2PO4, 11.1 mM glucose, pH 7.4). Cells were transferred from plates to polypropylene tubes (16×100 mm), centrifuged at 1,200×g for 5 min and were frozen at −80° C. until assay. Following centrifugation, pellets were resuspended by homogenization in buffer consisting of 50 mM Tris (pH 7.7 at 25° C.), 120 mM NaCl and 5 mM KCl and then centrifuged at 32,000×g for 10 min. Following centrifugation, supernatants were discarded and pellets were resuspended in buffer consisting of 50 mM Tris (pH 7.4 at 25° C.), 150 mM NaCl and 5 mM KCl. Membrane homogenates (200 μl/plate) were incubated with 1 nM [^3H]-citalopram (specific activity=85 Ci/mmol) and increasing concentrations of test compounds for 1 hr at 25° C. in a total volume of 250 μl. The assay buffer consisted of 50 mM Tris (pH 7.4 at 25° C.), 120 mM NaCl and 5 mM KCl (pH 7.4 with conc. HCl). Plates were incubated for 1 hr at 25° C., then filtered through 0.5% PEI treated Whatman GF/B filters using a Brandel cell harvester. Filters were washed three times with 3 ml of ice-cold tris wash buffer. Non-specific binding was defined with 10 μM fluoxetine. Amount of radioligand bound in the presence and absence of competitor was analyzed by plotting (−)log drug concentration versus the amount of radioligand specifically bound. The midpoint of the displacement curve (IC50, nM), signifies the potency. Ki values can be calculated using the method of Cheng and Prusoff (Cheng and Prusoff, Biochemical Pharmacology, Vol 22, pp. 3099–3108, Pergamon Press (1973)).

Row | SMILES | IC50 [1] | IC50 [2]
1 | NCCC(O)(COCc1ccc(C(F)(F)F)cc1)c1ccccc1 (centres unmarked) [Example 56, 1-(4-(trifluoromethyl)benzyloxy)-4-amino-2-phenylbutan-2-ol] | > 0.3 µM | 0.1 to 0.3 µM
2 | Cc1cccc(COCC(O)(CCN)c2ccccc2)c1 (centres unmarked) [Example 60, 1-(3-methylbenzyloxy)-4-amino-2-phenylbutan-2-ol] | > 0.3 µM | 0.001 to 0.1 µM
3 | NCCC(O)(COCc1cc(Cl)cc(Cl)c1)c1ccccc1 (centres unmarked) [Example 61, 1-(3,5-dichlorobenzyloxy)-4-amino-2-phenylbutan-2-ol] | 0.001 to 0.1 µM | 0.001 to 0.1 µM
4 | COc1cccc(COCC(O)(CCN)c2ccccc2)c1 (centres unmarked) [Example 63, 1-(3-methoxybenzyloxy)-4-amino-2-phenylbutan-2-ol] | > 0.3 µM | 0.001 to 0.1 µM
5 | NCCC(O)(COCc1cc(F)cc(F)c1)c1ccccc1 (centres unmarked) [Example 64, 1-(3,5-difluorobenzyloxy)-4-amino-2-phenylbutan-2-ol] | 0.1 to 0.3 µM | 0.001 to 0.1 µM
6 | NCCC(O)(COCc1cccc(Cl)c1)c1ccccc1 (centres unmarked) [Example 65, 1-(3-chlorobenzyloxy)-4-amino-2-phenylbutan-2-ol] | > 0.3 µM | 0.001 to 0.1 µM
7 | NCCC(O)(COCc1ccc(Br)cc1)c1ccccc1 (centres unmarked) [Example 66, 1-(4-bromobenzyloxy)-4-amino-2-phenylbutan-2-ol] | > 0.3 µM | 0.1 to 0.3 µM
8 | Cc1ccccc1COCC(O)(CCN)c1ccccc1 (centres unmarked) [Example 67, 1-(2-methylbenzyloxy)-4-amino-2-phenylbutan-2-ol] | > 0.3 µM | 0.1 to 0.3 µM
9 | NCCC(O)(COCc1cc(Br)cc(Br)c1)c1ccccc1 (centres unmarked) [Example 68, 1-(3,5-dibromobenzyloxy)-4-amino-2-phenylbutan-2-ol] | 0.001 to 0.1 µM | 0.001 to 0.1 µM
10 | CNCCC(COCc1cc(C(F)(F)F)cc(C(F)(F)F)c1)c1ccccc1 (centres unmarked) [Example 72, 1-(3,5-bis(trifluoromethyl)benzyloxy)-4-methylamino-2-phenylbutane] | 0.001 to 0.1 µM | 0.001 to 0.1 µM
11 | CN(C)CCC(COCc1cc(C(F)(F)F)cc(C(F)(F)F)c1)c1ccccc1 (centres unmarked) [Example 73, 1-(3,5-bis(trifluoromethyl)benzyloxy)-4-dimethylamino-2-phenylbutane] | 0.001 to 0.1 µM | 0.001 to 0.1 µM
12 | CC(CCN)(COCc1cc(C(F)(F)F)cc(C(F)(F)F)c1)c1ccccc1 (centres unmarked) [Example 74, 1-(3,5-bis(trifluoromethyl)benzyloxy)-4-amino-2-methyl-2-phenylbutane] | 0.001 to 0.1 µM | 0.001 to 0.1 µM
13 | CNCCC(C)(COCc1cc(C(F)(F)F)cc(C(F)(F)F)c1)c1ccccc1 (centres unmarked) [Example 75, 1-(3,5-bis(trifluoromethyl)benzyloxy)-4-methylamino-2-methyl-2-phenylbutane] | 0.001 to 0.1 µM | 0.1 to 0.3 µM
14 | CN(C)CCC(C)(COCc1cc(C(F)(F)F)cc(C(F)(F)F)c1)c1ccccc1 (centres unmarked) [Example 76, 1-(3,5-bis(trifluoromethyl)benzyloxy)-4-dimethylamino-2-methyl-2-phenylbutane] | 0.1 to 0.3 µM | 0.001 to 0.1 µM
15 | CC(CN)(COCc1cc(C(F)(F)F)cc(C(F)(F)F)c1)c1ccccc1 (centres unmarked) [Example 77, 1-(3,5-bis(trifluoromethyl)benzyloxy)-3-amino-2-methyl-2-phenylpropane] | 0.1 to 0.3 µM | 0.1 to 0.3 µM
16 | CNCC(C)(COCc1cc(C(F)(F)F)cc(C(F)(F)F)c1)c1ccccc1 (centres unmarked) [Example 78, 1-(3,5-bis(trifluoromethyl)benzyloxy)-3-methylamino-2-methyl-2-phenylpropane] | 0.1 to 0.3 µM | 0.1 to 0.3 µM
17 | CN(C)CC(C)(COCc1cc(C(F)(F)F)cc(C(F)(F)F)c1)c1ccccc1 (centres unmarked) [Example 79, 1-(3,5-bis(trifluoromethyl)benzyloxy)-3-dimethylamino-2-methyl-2-phenylpropane] | 0.001 to 0.1 µM | 0.001 to 0.1 µM

The next lines start with the values.

Row | IC50 [1] | IC50 [2] | SMILES
18 | > 0.3 µM | > 0.3 µM | NCCC(O)(COCc1ccccc1F)c1ccccc1 (centres unmarked) [Example 57, 1-(2-fluorobenzyloxy)-4-amino-2-phenylbutan-2-ol]
19 | > 0.3 µM | 0.1 to 0.3 µM | NCCC(O)(COCc1cccc(F)c1)c1ccccc1 (centres unmarked) [Example 58, 1-(3-fluorobenzyloxy)-4-amino-2-phenylbutan-2-ol]
20 | > 0.3 µM | 0.1 to 0.3 µM | NCCC(O)(COCc1ccc(F)cc1)c1ccccc1 (centres unmarked) [Example 59, 1-(4-fluorobenzyloxy)-4-amino-2-phenylbutan-2-ol]
21 | > 0.3 µM | 0.001 to 0.1 µM | COc1ccccc1COCC(O)(CCN)c1ccccc1 (centres unmarked) [Example 62, 1-(2-methoxybenzyloxy)-4-amino-2-phenylbutan-2-ol]
22 | > 0.3 µM | 0.001 to 0.1 µM | NCCC(O)(COCc1cccc(OC(F)(F)F)c1)c1ccccc1 (centres unmarked) [Example 69, 1-(3-(trifluoromethoxy)benzyloxy)-4-amino-2-phenylbutan-2-ol]
23 | > 0.3 µM | 0.001 to 0.1 µM | NCCC(O)(COCc1ccc(Cl)cc1)c1ccccc1 (centres unmarked) [Example 70, 1-(4-chlorobenzyloxy)-4-amino-2-phenylbutan-2-ol]
24 | 0.001 to 0.1 µM | 0.1 to 0.3 µM | NCCC(COCc1cc(C(F)(F)F)cc(C(F)(F)F)c1)c1ccccc1 (centres unmarked) [Example 71, 1-(3,5-bis(trifluoromethyl)benzyloxy)-4-amino-2-phenylbutane]
25 | 0.1 to 0.3 µM | 0.001 to 0.1 µM | NCCC(O)(CSCc1cc(C(F)(F)F)cc(C(F)(F)F)c1)c1ccccc1 (centres unmarked) [Example 80, 1-(3,5-bis(trifluoromethyl)benzylthio)-4-amino-2-phenylbutane-2-ol]
